# Results reported in publication PMC10874727, “The dual GGDEF/EAL domain enzyme PA0285 is a Pseudomonas species housekeeping phosphodiesterase regulating early attachment and biofilm architecture” (The Journal of Biological Chemistry, 2024).
# Target: T1, PA0285_317-760 (Pseudomonas aeruginosa, UniProt Q9I6K5)
# T1 construct: gene PA0285; GGDEF/EAL tandem domains, residues 317-760 of 760; transmembrane and PAS domains absent; GST tag cleaved by thrombin; E. coli BL21(DE3); monomer (copies word: monomeric)
# Test: HDX-MS
# Type: binding
# Details: 2.5 mM GTP, 1 mM MgCl2, 1 mM MnCl2, pH 7.5, 25 °C; site: GGDEF domain; no diguanylate cyclase turnover
# T1 sequence (Q9I6K5 entry or part of it): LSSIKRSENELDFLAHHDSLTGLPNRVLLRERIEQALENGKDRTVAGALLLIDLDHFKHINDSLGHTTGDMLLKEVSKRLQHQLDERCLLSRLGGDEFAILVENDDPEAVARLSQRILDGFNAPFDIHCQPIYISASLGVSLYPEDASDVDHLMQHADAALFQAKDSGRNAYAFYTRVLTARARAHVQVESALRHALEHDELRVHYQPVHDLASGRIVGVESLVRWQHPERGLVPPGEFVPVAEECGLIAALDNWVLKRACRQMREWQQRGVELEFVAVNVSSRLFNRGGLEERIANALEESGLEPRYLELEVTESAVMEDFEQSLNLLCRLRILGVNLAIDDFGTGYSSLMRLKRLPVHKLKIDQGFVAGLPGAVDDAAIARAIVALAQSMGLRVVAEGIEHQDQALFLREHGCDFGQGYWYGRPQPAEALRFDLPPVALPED
compound,measurement,value
Nc1nc2c(ncn2[C@@H]2O[C@H](COP(=O)(O)OP(=O)(O)OP(=O)(O)O)[C@@H](O)[C@H]2O)c(=O)[nH]1 [GTP],HDX-MS,"the neighboring helices exhibited reduced HDX, substantiating GTP binding"
